Source: patent US9302999B2, “Substituted triazoles as herbicides” (E. I. DU PONT DE NEMOURS AND COMPANY, priority 2012, dated 2016)

How the values were obtained:
Type in all cases: in vivo
Conditions in all cases: Preemergence, scale 0 to 100
[1] = tested on: corn (Zea mays); assay: Test E pre-/postemergence: corn
Source text: (§1) Seeds of plant species selected from corn (Zea mays), soybean (Glycine max), velvetleaf (Abutilon theophrasti), lambsquarters (Chenopodium album), poinsettia, wild (wild poinsettia, Euphorbia heterophylla), pigweed, palmer (palmer pigweed, Amaranthus palmeri), waterhemp (common waterhemp, Amaranthus rudis), smartweed (ladysthumb smartweed, Polygonum persicaria), surinam grass (Brachiaria decumbens), crabgrass, large (large crabgrass, Digitaria sanguinalis), crabgrass, Brazil (Brazilian crabgrass, Digitaria horizontalis), panicum, fall (fall panicum, Panicum dichotomiflorum), foxtail, giant (giant foxtail, Setaria faberii), foxtail, green (green foxtail, Setaria viridis), goosegrass (Eleusine indica), johnsongrass (Sorghum halepense), ragweed (common ragweed, Ambrosia elation), barnyardgrass (Echinochloa crus-galli), sandbur (southern sandbur, Cenchrus echinatus), arrowleaf sida (Sida rhombifolia), ryegrass, Italian (Italian ryegrass, Lolium multiflorum), dayflower, (VA) (Virginia dayflower, Commelina virginica), field bindweed (Convolvulus arvensis), cocklebur (common cocklebur, Xanthium strumarium), morningglory (Ipomoea coccinea), nightshade (eastern black nightshade, Solanum ptycanthum), kochia (Kochia scoparia), nutsedge, yellow (yellow nutsedge, Cyperus esculentus) and beggarticks (hairy beggarticks, Bidens pilosa) were planted into a silt loam soil and treated preemergence with test chemicals formulated in a non-phytotoxic solvent mixture which included a surfactant. At the same time, plants selected from these crop and weed species were planted in pots containing a growing medium comprising spaghnum peat moss, vermiculite, wetting agent and starter nutrients and treated with postemergence applications of some of the test chemicals formulated in the same manner. Plants ranged in height from 2 to 18 cm for postemergence treatments (1- to 4-leaf stage).
(§2) Treated plants and controls were maintained in a greenhouse for 14 to 21 days, after which time all species were compared to controls and visually evaluated. Plant response ratings, summarized in Table E, are based on a scale of 0 to 100 where 0 is no effect and 100 is complete control. A dash (-) response means no test result.

[2] = tested on: soybean (Glycine max); assay: Test E pre-/postemergence: soybean
Source text: as §1, §2

[3] = tested on: poinsettia, wild (wild poinsettia, Euphorbia heterophylla); assay: Test E pre-/postemergence: poinsettia, wild
Source text: as §1, §2

[4] = tested on: waterhemp (common waterhemp, Amaranthus rudis); assay: Test E pre-/postemergence: waterhemp
Source text: as §1, §2

[5] = tested on: surinam grass (Brachiaria decumbens); assay: Test E pre-/postemergence: surinam grass
Source text: as §1, §2

[6] = tested on: panicum, fall (fall panicum, Panicum dichotomiflorum); assay: Test E pre-/postemergence: panicum, fall
Source text: as §1, §2

[7] = tested on: goosegrass (Eleusine indica); assay: Test E pre-/postemergence: goosegrass
Source text: as §1, §2

[8] = tested on: johnsongrass (Sorghum halepense); assay: Test E pre-/postemergence: johnsongrass
Source text: as §1, §2

[9] = tested on: barnyardgrass (Echinochloa crus-galli); assay: Test E pre-/postemergence: barnyardgrass
Source text: as §1, §2

[10] = tested on: sandbur (southern sandbur, Cenchrus echinatus); assay: Test E pre-/postemergence: sandbur
Source text: as §1, §2

[11] = tested on: field bindweed (Convolvulus arvensis); assay: Test E pre-/postemergence: field bindweed
Source text: as §1, §2

[12] = tested on: cocklebur (common cocklebur, Xanthium strumarium); assay: Test E pre-/postemergence: cocklebur
Source text: as §1, §2

[13] = tested on: nightshade (eastern black nightshade, Solanum ptycanthum); assay: Test E pre-/postemergence: nightshade
Source text: as §1, §2

[14] = tested on: nutsedge, yellow (yellow nutsedge, Cyperus esculentus); assay: Test E pre-/postemergence: nutsedge, yellow
Source text: as §1, §2

[15] = tested on: smartweed (ladysthumb smartweed, Polygonum persicaria); assay: Test E pre-/postemergence: smartweed
Source text: as §1, §2

[16] = tested on: morningglory (Ipomoea coccinea); assay: Test E pre-/postemergence: morningglory
Source text: as §1, §2

[17] = tested on: beggarticks (hairy beggarticks, Bidens pilosa); assay: Test E pre-/postemergence: beggarticks
Source text: as §1, §2

Cc1nn(-c2ccc(C(F)(F)F)cn2)nc1Oc1ccnc(C(F)(F)F)c1 [Compound 23]
Plant response rating: Corn ([1]; 16 g ai/ha): 0
Plant response rating: Corn ([1]; 31 g ai/ha): 0
Plant response rating: Corn ([1]; 62 g ai/ha): 0
Plant response rating: Corn ([1]; 125 g ai/ha): 0
Plant response rating: Corn ([1]; 250 g ai/ha): 20
Plant response rating: Soybean ([2]; 16 g ai/ha): 0
Plant response rating: Soybean ([2]; 31 g ai/ha): 0
Plant response rating: Soybean ([2]; 62 g ai/ha): 0
Plant response rating: Soybean ([2]; 125 g ai/ha): 0
Plant response rating: Soybean ([2]; 250 g ai/ha): 20
Plant response rating: Poinsettia, Wild ([3]; 16 g ai/ha): 0
Plant response rating: Poinsettia, Wild ([3]; 31 g ai/ha): 0
Plant response rating: Poinsettia, Wild ([3]; 62 g ai/ha): 0
Plant response rating: Poinsettia, Wild ([3]; 125 g ai/ha): 35
Plant response rating: Poinsettia, Wild ([3]; 250 g ai/ha): 35
Plant response rating: Waterhemp ([4]; 16 g ai/ha): 0
Plant response rating: Waterhemp ([4]; 31 g ai/ha): 80
Plant response rating: Waterhemp ([4]; 62 g ai/ha): 80
Plant response rating: Waterhemp ([4]; 125 g ai/ha): 98
Plant response rating: Waterhemp ([4]; 250 g ai/ha): 100
Plant response rating: Surinam Grass ([5]; 16 g ai/ha): 0
Plant response rating: Surinam Grass ([5]; 31 g ai/ha): 0
Plant response rating: Surinam Grass ([5]; 62 g ai/ha): 10
Plant response rating: Surinam Grass ([5]; 125 g ai/ha): 20
Plant response rating: Surinam Grass ([5]; 250 g ai/ha): 20
Plant response rating: Panicum, Fall ([6]; 16 g ai/ha): 0
Plant response rating: Panicum, Fall ([6]; 31 g ai/ha): 15
Plant response rating: Panicum, Fall ([6]; 62 g ai/ha): 80
Plant response rating: Panicum, Fall ([6]; 125 g ai/ha): 100
Plant response rating: Panicum, Fall ([6]; 250 g ai/ha): 100
Plant response rating: Goosegrass ([7]; 16 g ai/ha): 0
Plant response rating: Goosegrass ([7]; 62 g ai/ha): 20
Plant response rating: Goosegrass ([7]; 125 g ai/ha): 35
Plant response rating: Goosegrass ([7]; 250 g ai/ha): 60
Plant response rating: Johnsongrass ([8]; 16 g ai/ha): 0
Plant response rating: Johnsongrass ([8]; 31 g ai/ha): 0
Plant response rating: Johnsongrass ([8]; 62 g ai/ha): 0
Plant response rating: Johnsongrass ([8]; 125 g ai/ha): 20
Plant response rating: Johnsongrass ([8]; 250 g ai/ha): 60
Plant response rating: Barnyardgrass ([9]; 16 g ai/ha): 0
Plant response rating: Barnyardgrass ([9]; 31 g ai/ha): 0
Plant response rating: Barnyardgrass ([9]; 62 g ai/ha): 0
Plant response rating: Barnyardgrass ([9]; 125 g ai/ha): 20
Plant response rating: Barnyardgrass ([9]; 250 g ai/ha): 20
Plant response rating: Sandbur ([10]; 16 g ai/ha): 0
Plant response rating: Sandbur ([10]; 31 g ai/ha): 0
Plant response rating: Sandbur ([10]; 62 g ai/ha): 0
Plant response rating: Sandbur ([10]; 125 g ai/ha): 25
Plant response rating: Sandbur ([10]; 250 g ai/ha): 65
Plant response rating: Field Bindweed ([11]; 16 g ai/ha): 0
Plant response rating: Field Bindweed ([11]; 31 g ai/ha): 0
Plant response rating: Field Bindweed ([11]; 62 g ai/ha): 0
Plant response rating: Field Bindweed ([11]; 125 g ai/ha): 0
Plant response rating: Field Bindweed ([11]; 250 g ai/ha): 70
Plant response rating: Cocklebur ([12]; 16 g ai/ha): 0
Plant response rating: Cocklebur ([12]; 31 g ai/ha): 0
Plant response rating: Cocklebur ([12]; 62 g ai/ha): 0
Plant response rating: Cocklebur ([12]; 125 g ai/ha): 0
Plant response rating: Cocklebur ([12]; 250 g ai/ha): 0
Plant response rating: Nightshade ([13]; 16 g ai/ha): 0
Plant response rating: Nightshade ([13]; 31 g ai/ha): 0
Plant response rating: Nightshade ([13]; 62 g ai/ha): 0
Plant response rating: Nightshade ([13]; 125 g ai/ha): 95
Plant response rating: Nightshade ([13]; 250 g ai/ha): 98
Plant response rating: Nutsedge, Yellow ([14]; 16 g ai/ha): 0
Plant response rating: Nutsedge, Yellow ([14]; 31 g ai/ha): 0
Plant response rating: Nutsedge, Yellow ([14]; 62 g ai/ha): 0
Plant response rating: Nutsedge, Yellow ([14]; 125 g ai/ha): 15
Plant response rating: Nutsedge, Yellow ([14]; 250 g ai/ha): 15

FC(F)(F)COc1nn(-c2ccc(C(F)(F)F)cc2)nc1Cc1ccnc(C(F)(F)F)c1 [Compound 14, 4-[[5-(2,2,2-trifluoroethoxy)-2-[4-(trifluoromethyl)phenyl]-2H-1,2,3-triazol-4-yl]methyl]-2-(trifluoromethyl)pyridine]
Plant response rating: Corn ([1]; 16 g ai/ha): 0
Plant response rating: Corn ([1]; 31 g ai/ha): 0
Plant response rating: Corn ([1]; 62 g ai/ha): 0
Plant response rating: Corn ([1]; 125 g ai/ha): 0
Plant response rating: Corn ([1]; 250 g ai/ha): 0
Plant response rating: Soybean ([2]; 16 g ai/ha): 0
Plant response rating: Soybean ([2]; 31 g ai/ha): 10
Plant response rating: Soybean ([2]; 62 g ai/ha): 25
Plant response rating: Soybean ([2]; 250 g ai/ha): 35
Plant response rating: Poinsettia, Wild ([3]; 16 g ai/ha): 15
Plant response rating: Poinsettia, Wild ([3]; 31 g ai/ha): 25
Plant response rating: Poinsettia, Wild ([3]; 62 g ai/ha): 50
Plant response rating: Poinsettia, Wild ([3]; 125 g ai/ha): 65
Plant response rating: Poinsettia, Wild ([3]; 250 g ai/ha): 75
Plant response rating: Waterhemp ([4]; 16 g ai/ha): 90
Plant response rating: Waterhemp ([4]; 31 g ai/ha): 98
Plant response rating: Waterhemp ([4]; 62 g ai/ha): 100
Plant response rating: Waterhemp ([4]; 125 g ai/ha): 100
Plant response rating: Waterhemp ([4]; 250 g ai/ha): 100
Plant response rating: Smartweed ([15]; 31 g ai/ha): 25
Plant response rating: Smartweed ([15]; 62 g ai/ha): 80
Plant response rating: Smartweed ([15]; 250 g ai/ha): 80
Plant response rating: Surinam Grass ([5]; 16 g ai/ha): 5
Plant response rating: Surinam Grass ([5]; 31 g ai/ha): 10
Plant response rating: Surinam Grass ([5]; 62 g ai/ha): 25
Plant response rating: Surinam Grass ([5]; 125 g ai/ha): 65
Plant response rating: Surinam Grass ([5]; 250 g ai/ha): 100
Plant response rating: Panicum, Fall ([6]; 16 g ai/ha): 65
Plant response rating: Panicum, Fall ([6]; 31 g ai/ha): 80
Plant response rating: Panicum, Fall ([6]; 62 g ai/ha): 100
Plant response rating: Panicum, Fall ([6]; 125 g ai/ha): 100
Plant response rating: Panicum, Fall ([6]; 250 g ai/ha): 100
Plant response rating: Goosegrass ([7]; 16 g ai/ha): 65
Plant response rating: Goosegrass ([7]; 31 g ai/ha): 100
Plant response rating: Goosegrass ([7]; 62 g ai/ha): 100
Plant response rating: Goosegrass ([7]; 125 g ai/ha): 100
Plant response rating: Goosegrass ([7]; 250 g ai/ha): 100
Plant response rating: Johnsongrass ([8]; 16 g ai/ha): 10
Plant response rating: Johnsongrass ([8]; 31 g ai/ha): 20
Plant response rating: Johnsongrass ([8]; 62 g ai/ha): 70
Plant response rating: Johnsongrass ([8]; 125 g ai/ha): 90
Plant response rating: Johnsongrass ([8]; 250 g ai/ha): 95
Plant response rating: Barnyardgrass ([9]; 16 g ai/ha): 5
Plant response rating: Barnyardgrass ([9]; 31 g ai/ha): 15
Plant response rating: Barnyardgrass ([9]; 62 g ai/ha): 35
Plant response rating: Barnyardgrass ([9]; 125 g ai/ha): 60
Plant response rating: Barnyardgrass ([9]; 250 g ai/ha): 60
Plant response rating: Sandbur ([10]; 16 g ai/ha): 5
Plant response rating: Sandbur ([10]; 31 g ai/ha): 5
Plant response rating: Sandbur ([10]; 62 g ai/ha): 15
Plant response rating: Sandbur ([10]; 125 g ai/ha): 50
Plant response rating: Sandbur ([10]; 250 g ai/ha): 50
Plant response rating: Field Bindweed ([11]; 16 g ai/ha): 5
Plant response rating: Field Bindweed ([11]; 31 g ai/ha): 20
Plant response rating: Field Bindweed ([11]; 62 g ai/ha): 65
Plant response rating: Field Bindweed ([11]; 125 g ai/ha): 65
Plant response rating: Field Bindweed ([11]; 250 g ai/ha): 75
Plant response rating: Cocklebur ([12]; 16 g ai/ha): 0
Plant response rating: Cocklebur ([12]; 31 g ai/ha): 0
Plant response rating: Cocklebur ([12]; 62 g ai/ha): 0
Plant response rating: Cocklebur ([12]; 125 g ai/ha): 50
Plant response rating: Morningglory ([16]; 16 g ai/ha): 0
Plant response rating: Morningglory ([16]; 31 g ai/ha): 20
Plant response rating: Morningglory ([16]; 62 g ai/ha): 35
Plant response rating: Morningglory ([16]; 125 g ai/ha): 75
Plant response rating: Morningglory ([16]; 250 g ai/ha): 75
Plant response rating: Nightshade ([13]; 16 g ai/ha): 35
Plant response rating: Nightshade ([13]; 31 g ai/ha): 60
Plant response rating: Nightshade ([13]; 62 g ai/ha): 98
Plant response rating: Nightshade ([13]; 125 g ai/ha): 98
Plant response rating: Nightshade ([13]; 250 g ai/ha): 98
Plant response rating: Nutsedge, Yellow ([14]; 16 g ai/ha): 0
Plant response rating: Nutsedge, Yellow ([14]; 31 g ai/ha): 0
Plant response rating: Nutsedge, Yellow ([14]; 62 g ai/ha): 0
Plant response rating: Nutsedge, Yellow ([14]; 125 g ai/ha): 0
Plant response rating: Nutsedge, Yellow ([14]; 250 g ai/ha): 15
Plant response rating: Beggarticks ([17]; 16 g ai/ha): 5
Plant response rating: Beggarticks ([17]; 31 g ai/ha): 50
Plant response rating: Beggarticks ([17]; 62 g ai/ha): 90
Plant response rating: Beggarticks ([17]; 125 g ai/ha): 98
Plant response rating: Beggarticks ([17]; 250 g ai/ha): 100
